Measured values as given in patent publication US20060251659A1, “Method for screening molecules that restore NOD1 activity in cells containing an NOD2 mutation that reduces or eliminates NOD1 activity” (priority 2005, published 2006).
Entries after “also recorded” stand apart in the source; their conditions may differ.

Key:
[1] = tested on: PBMCs from Crohn's disease patients without Nod2 mutations; test: Cytokine response of PBMCs from Crohn's disease patients without Nod2 mutations; type: cell-based, human; details: PBMCs from non-Nod2 Crohn's disease patients; 50 nM; overnight (18 hours)
Method: (§1) FIG. 2. Response to muramyl peptides of PBMCs from healthy donors (CTR), Crohn's disease patients without defects in Nod2 (Crohn's) or Crohn's disease patients homozygous for the frameshift mutation (Nod2 fs). IL-1β, TNF and IL-10 were measured from the cell culture medium. Intracellular IL-1α was measured from cell lysates. All muramyl peptides (all 50 nM) were added directly to the cell culture medium for 18 hours.
as §1, with “3.” for “2.”, “peptidoglycans” for “muramyl peptides”, “(Nod2fs).” for “(Nod2 fs).”, “at 1 μg/ml) and LPS (100 ng/ml)” for “50 nM)”
(§2) FIG. 5. Analysis of the synergistic activation of PBMCs by M-TriDAP plus either LPS or LTA. PBMCs from healthy donors (CTR), Crohn's disease patients without defects in Nod2 (Crohn's) or Crohn's disease patients homozygous for the frameshift mutation (Nod2 fs) were analyzed. Cells were stimulated either with M-TriDAP (MTP(DAP) on the figure), LPS or LTA alone or in combination; LPS+M-TriDAP or LTA+M-TriDAP with the agonists added simultaneously, IL-1β, TNF and IL-10 were measured from the cell culture medium. Intracellular IL-1α was measured from cell lysates, LPS (40 pg/ml), LTA (5 μg/ml) and M-TriDAP (50 nM) were added directly to the cell culture medium for 18 hours.
(§3) The six muramyl peptides characterized above (MDP, M-TriLys, M-TetraLys, anhydro-M-TriLys, anhydro-M-TetraLys and M-TriDAP) were used to stimulate PBMCs obtained from human blood. PBMCs from three groups of individuals were collected: healthy donors (CTR), Crohn's disease patients without Nod2 mutations (Crohn) and Crohn's disease patients carrying homozygous Nod2fs frameshift mutation (Nod2fs). […] IL-1β, IL-10 and TNFα were measured in the supernatant, while intracellular IL-1α was measured from cell lysates (FIG. 2). […]

[2] = tested on: PBMCs from healthy donors; test: Cytokine response of PBMCs from healthy donors (CTR); type: cell-based, human; details: 50 nM, overnight (18 hours)
Method: as §1
as §1, with “3.” for “2.”, “peptidoglycans” for “muramyl peptides”, “(Nod2fs).” for “(Nod2 fs).”, “at 1 μg/ml) and LPS (100 ng/ml)” for “50 nM)”
as §2, §3

Nod2 = target: T1, Nod2 (Homo sapiens, UniProt Q9HC29); test: Nod2-dependent NF-κB luciferase reporter activation in transfected HEK293T cells; type: cell-based; details: for activation of Nod2 (NF-κB-driven luciferase reporter): muramyl peptides 10 nM up to 250 nM, HEK293T cells expressing Nod2, 24 h
T1 construct: expressed in transfected cells; host or cells: HEK293T
Method: FIG. 1. Detection of MDP-derived muramyl peptides by Nod2. A, schematic representation of the muramyl peptides used in this study. B, Human HEK293 epithelial cells were transfected with several muramyl peptides (MDP, M-TriLys, Anh-M-TriLys, M-TetraLYS and Anh-M-TetraLYS) at the following concentrations: 10 nM (white bars), 50 nM (grey bars) or 250 nM (black bars) in the presence of an expression vector for Nod2 . The activity of a NF-κB-driven luciferase reporter gene was measured, and Nod2-dependent activation of the reporter gene in the presence of muramyl peptides was reported to the one obtained without stimulation with muramyl peptides. […] Experiments were performed three times with similar results.
In search for MDP-derived muramyl peptides that could stimulate the Nod2 signaling pathway, the inventors generated several molecules differing in the length of their peptidic moiety, including M-TriLys and M-TetraLys (FIG. 1A). These molecules were then tested for their ability to activate Nod2 using co-transfection assays in HEK293T epithelial cells and measuring NF-κB activity as a read-out (FIG. 1B). […] Here, a larger range of muramyl peptide concentration was used (10 nM up to 250 nM) to allow for the identification of even weak inducers of the Nod2 pathway.
HEK293T cells were cultured in DMEM containing 10% fetal calf serum. Prior to transfection, HEK293T cells were seeded into 24 well plates at a density of 1×10^5 cells/ml as described previously (26), MDP LD was from Calbiochem and reported to be 98% pure by TLC.
The expression plasmid for Nod2 has been previously described (27). The NF-κB luciferase reporter plasmid was from Stratagene. Transfections were carried out in […] cells as previously described (26).
Studies examining the synergistic activation of NF-κB by muramyl peptides in cells over expressing Nod2 were carried out as originally described by Inohara et al. (28). Briefly, HEK293T cells were transfected overnight with 10 ng of Nod2 plus 75 ng of NF-κB luciferase reporter plasmid. At the same time, muramyl peptides were added to cell culture medium and the synergistic NF-κB-dependent luciferase activation was then measured following 24 h of co-incubation. NF-κB-dependent luciferase assays were performed in duplicate and data represent at least 3 independent experiments.

[3] = tested on: PBMCs from Nod2fs patients; test: Cytokine response of PBMCs from Crohn's disease patients homozygous for the Nod2fs frameshift mutation; type: cell-based, human; details: 50 nM, overnight (18 hours)
Method: as §1
as §1, with “3.” for “2.”, “peptidoglycans” for “muramyl peptides”, “(Nod2fs).” for “(Nod2 fs).”, “at 1 μg/ml) and LPS (100 ng/ml)” for “50 nM)”
as §2, §3

T1 sequence (Q9HC29 whole entry): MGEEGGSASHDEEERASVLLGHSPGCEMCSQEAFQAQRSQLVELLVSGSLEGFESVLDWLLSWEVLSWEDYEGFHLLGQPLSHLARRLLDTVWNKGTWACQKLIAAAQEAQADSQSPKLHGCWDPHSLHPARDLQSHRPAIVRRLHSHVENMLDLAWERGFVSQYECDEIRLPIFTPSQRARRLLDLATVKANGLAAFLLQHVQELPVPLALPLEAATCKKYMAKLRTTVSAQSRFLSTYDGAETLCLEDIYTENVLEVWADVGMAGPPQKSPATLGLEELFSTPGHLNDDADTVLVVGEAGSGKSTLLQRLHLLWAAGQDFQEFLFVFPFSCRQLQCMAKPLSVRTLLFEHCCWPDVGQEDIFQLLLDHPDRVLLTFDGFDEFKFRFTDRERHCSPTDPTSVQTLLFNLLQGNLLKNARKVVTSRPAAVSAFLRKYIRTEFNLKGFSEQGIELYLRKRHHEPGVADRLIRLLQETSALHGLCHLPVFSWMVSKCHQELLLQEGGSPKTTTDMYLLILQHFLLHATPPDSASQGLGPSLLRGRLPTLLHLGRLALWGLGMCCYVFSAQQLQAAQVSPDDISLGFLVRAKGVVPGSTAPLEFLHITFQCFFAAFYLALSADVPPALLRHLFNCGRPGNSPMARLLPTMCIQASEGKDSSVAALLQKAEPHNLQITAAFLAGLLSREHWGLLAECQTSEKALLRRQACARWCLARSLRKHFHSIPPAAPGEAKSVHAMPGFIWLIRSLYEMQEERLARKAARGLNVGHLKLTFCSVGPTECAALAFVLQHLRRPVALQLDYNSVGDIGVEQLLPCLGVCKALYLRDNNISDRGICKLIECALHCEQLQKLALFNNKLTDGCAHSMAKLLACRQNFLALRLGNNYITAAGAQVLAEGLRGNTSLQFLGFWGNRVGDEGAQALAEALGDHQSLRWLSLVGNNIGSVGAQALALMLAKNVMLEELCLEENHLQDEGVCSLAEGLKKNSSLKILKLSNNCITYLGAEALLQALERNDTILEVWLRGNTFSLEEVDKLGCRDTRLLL

Molecule | cytokine response (IL-1β, IL-10, TNFα, intracellular IL-1α) to muramyl peptides [1] | cytokine response (IL-1β, IL-10, TNFα, intracellular IL-1α) to muramyl peptides [2] | activation of Nod2 (NF-κB-driven luciferase reporter) (Nod2) | cytokine response (IL-1β, IL-10, TNFα, intracellular IL-1α) to muramyl peptides [3] | concentration at which activation of Nod2 was maximal (Nod2; HEK293T co-transfection, NF-κB read-out, 10 pmoles per milliliter of culture medium)
M-TriLys | still reacted | potent activators | activated Nod2 with similar efficiency | not stimulated | 
diaminopimelic acid (DAP)-containing muramyl tripeptide [M-TriDAP] | efficiently stimulated; also recorded: globally as potent as MDP | efficiently stimulated; also recorded: globally as potent as MDP | failed to activate Nod2 | failed to induce cytokine response; also recorded: unable to stimulate | 
CC(=O)N[C@H]1C(O)O[C@H](CO)[C@@H](O)[C@@H]1O[C@H](C)C(=O)N[C@@H](C)C(=O)N[C@H](CCC(=O)O)C(N)=O (mixture of isomers) [MDP, muramyl dipeptide] | still reacted | potent activators | activated Nod2 with similar efficiency | not stimulated | 10 nM
